Literature values, collected in patent US20040089561A1, “Method and package for storing a pressurized container containing a drug” (priority 1999, published 2004).

Settings: water in the propellant

| SMILES | maximum water solubility |
| --- | --- |
| FC(F)(Cl)Cl [CFC 12] | about 130 ppm |
| FC(F)(Cl)C(F)(F)Cl [CFC 114] | about 130 ppm |
| FCC(F)(F)F [HFC 134a] | about 2200 ppm |
